Series [1] can be described thus: In vitro stability in mouse liver microsomes. The conditions noted are these: mouse liver microsomes; for half-life at 20 µM / microsomal CLint at 20 µM: mouse; for microsomal CLint at 20 µM: calculated from t1/2. It is filed as in vitro ADME. The protocol: Mouse liver microsomes (MLMs) were used to investigate the phase I metabolism of selected compounds (2c, 2d, 3b, 4g, 5a) and the reference substance BP-2. Samples composed of test compound (20 µM), MLMs (0.8 mg/mL) and potassium phosphate buffer (100 mM, pH 7.4) were preincubated prior to addition of NADPH-regenerating system. NADPH-regenerating system contained NADP, glucose-6-phosphate, glucose-6-phosphate dehydrogenase and potassium phosphate buffer (100 mM, pH 7.4). Control incubations were performed in the absence of the NADPH-regenerating system and in case of esters (2c, 2d, 3b and 4g) without the mouse liver microsomes solution to determine spontaneous hydrolysis. Incubations were conducted at 37 °C for at least 15 min up to 60 min. The reactions were stopped by the addition of 250 μL ice-cold methanol containing internal standard PTX (20 μM). The mixture was then centrifuged. Supernatant analysis was performed using UPLC/MS (Waters Corporation). The assays were repeated two times. The in vitro half times (t1/2) for test compounds were determined from the slope of the linear regression of ln % parent compound remaining versus incubation time. The calculated t1/2 was incorporated into the following equation to obtain intrinsic clearance: (Clint) = (volume of incubation [µL]/ protein in the incubation [mg]) × 0.693 / t1/2 [74].

A short description of series [2]: Photostability in methanol solutions (solar light simulator). Further details: λmax pre-irradiation: unit not given beside the values. The format is physicochemical. The conditions noted are these: methanol solution; for % of initial AUC post-irradiation / λmax post-irradiation: 1h irradiation at 500 W/m2. The protocol:
(§1) The photostability evaluation of compounds was performed both in methanol solutions and in macrogol formulations. Irradiation of samples according to previous studies was conducted for 1 h at 500 W/m^2 (cumulative dose of ultraviolet radiation 218 kJ/m^2) with solar light simulator (Suntest CPS+, Atlas, Linsengericht, Germany) equipped with an optical filter cutting off wavelengths shorter than 290 nm and IR-block filter to neutralize thermal effects. The UV absorption spectrum of the samples were analysed post-irradiation and compared with pre-irradiation results. UPLC-MS/MS analyses were also performed.
(§2) Methanol solutions were tested at concentration 25 or 50 µM in quartz cuvettes with the PTFE stopper to prevent evaporation or leaking of the solvent. Macrogol formulations (2% w/w) were tested on PMMA plates (1.3 mg/cm^2). After post-irradiation measure of UV absorption, exposed and unexposed plates were washed with 5 mL of methanol, then mixtures were filtered and analysed by UPLC-MS/MS. All analyses were performed in duplicates.

Series [3] can be described thus: Ultraviolet spectroscopy in methanol solutions. It is filed as physicochemical. The settings on record: for Absorption Range: scan range 290–400 nm. As for the experimental part: Spectra with a scan range of 290–400 nm were recorded in 50 or 25 μM methanol solutions, in 1 cm path length, 1.5 mL quartz cuvettes on a U-2800 double beam spectrophotometer (Hitachi, Tokyo, Japan) controlled by UV Solution version 2.2 software. The molar extinction coefficient at maximum absorption (εmax) of tested compounds was determined in methanol as the slope of the linear regression of absorbance vs. concentration of tested compound (from 10 to 50 μM or 2.5 to 30 μM).

Series [4] can be described thus: Photostability in macrogol formulations on PMMA plates (solar light simulator). It is filed as physicochemical. The protocol:
After irradiation of thin layer of formulations applied on PMMA plates, their photoprotective parameters were determined and compared with the pre-irradiation results. The study gives an overview on functional photostability of the tested compounds. It is an important test, because the photostability of some compounds in low concentrated solutions may meaningfully differ from results obtained for higher concentrations used in sunscreen products. […] In the present study both UVB and UVA-absorbers were tested, so the changes in SPFin vitro, UVA PF and AUC after irradiation are taken into account as a measure of photostability.
as §1, §2

Series [5] in a line: In vitro photoprotection study of 2% (w/w) macrogol formulations on PMMA plates. An excerpt:
The composition of formulations and concentration of tested compounds were based on their limited solubility. N-monosubstituted compounds 2a–2e were insoluble at desirable concentrations in the typical solvents used in cosmetic formulations such as alcohols, triacetin, surfactants, and co-surfactants. To dissolve compounds 2a and 2b before incorporation to the formulation DMSO: Tween 20 (1:9 w/w) was used, for less soluble 2c–2e it was necessary to use DMSO alone as solvent. […] Thus the detailed composition of the formulations is as follows: F1–Tween 20 43.2%, PEG-400 25%, PEG-1500 25%, Triacetin 4.8%, tested compound 2%; F2–Tween 20 43.2%, PEG-400 25%, PEG-1500 25%, DMSO 4.8%, tested compound 2%; F3–PEG-400 25%, PEG-1500 25%, DMSO 48%, tested compound 2%. Considering the disadvantages of currently reported macrogol formulations and the low concentration achieved for the tested compounds (2%), we plan to work on cosmetic emulsions containing the most promising derivatives at higher concentrations as well as required excipients including preservatives, antioxidants, etc. This research will be carried out in the near future.
Tested compounds and commercial UV filters as reference standards were incorporated to a neutral macrogel formulation in the concentration of 2%. Prior to the incorporation, compounds 3a–3e and 4f–4h and reference UV-filters were dissolved in a triacetin:Tween 20 (1:9) solvent system. For compounds 2a–2e it was necessary to use DMSO. The final composition of the macrogol formulations is presented in the photoprotective activity section.
In vitro photoprotection study was performed according to EN ISO 24443:2012 [71] with slight modifications. Formulation with tested compound (32.5 mg) was applied on a polymethylmethacrylate plate (PMMA) with the application area 25 cm^2 and 5 µm roughness value to simulate the skin surface (Schonberg GmbH, Hamburg, Germany). As a reference a PMMA plate treated with approximately 15 µL of glycerin was used. Measurements were carried out by reflectance spectrophotometry with SPF-290AS Analyser (Solar Light Company, Glenside, PA, USA) equipped with integrating sphere controlled by WinSPF version X.X. software. For each sample two plates were prepared, absorbance measures were performed on 6 different positions of the plate from 290 to 400 nm with 1 nm steps. The results were expressed as an average of data from 12 scans.

The mark [6] stands for this setting: pH 7.4, mouse liver microsomes 0.8 mg/mL, 20 µM compound, NADPH-regenerating system, 37 °C, read-out: t ½.
Where [7] appears, read: after 1 h irradiation at 500 W/m^2, formulation F3 (DMSO 48%).
[8] abbreviates: 2% (w/w) macrogol formulation F3 (DMSO 48%).
[9] abbreviates: after 1 h irradiation at 500 W/m^2, formulation F1.
[10] abbreviates: 2% (w/w) macrogol formulation F1 (Triacetin 4.8%).

Where two headings read alike, the source gives them in different places. A value given as a limit tells only on which side of the number the result lay.

The microsomal CLint is the capacity of the preparation to metabolise the compound, expressed as a volume cleared per time. For orientation: melting point means the temperature, or range, at which the solid turns liquid. In turn, `CCOC(=O)CN1C(=O)N/C(=C\c2ccc(OCC)cc2)C1=O` [Compound 2c, Ethyl (Z)-2-(4-(4-ethoxybenzylidene)-2,5-dioxoimidazolidin-1-yl)acetate] had a melting point of 181 to 182 °C. The “Probable Transformation” value in series [1] is “O-dealkylation”. In series [1] (setting [6]), the half-life at 20 µM came out at 33 min. Moreover, the microsomal CLint at 20 µM in series [1] (pH 7.4, mouse liver microsomes) is 52 µL/min/mg. Further, in series [2], the λmax pre-irradiation was 336, the “% of initial AUC post-irradiation” value was 96.89% and the λmax post-irradiation is 344. Moreover, in series [3], the εmax was found to be 35610 M⁻¹ cm⁻¹, the λmax came out at 336 nm and the “Absorption Range” value is 290–376 nm. Besides, in series [4] (setting [7]), the “% of Initial AUC” value is 34.13%, the “% of Initial SPFin vitro” value is on record as 44.37% and the “% of Initial UVA PF” value was 35.83%. Besides, in series [5] (setting [8]), the SPFin vitro is on record as 3.16 ± 0.05, the “UVA PF” value is listed as 4.68 ± 0.02, the “UVA/UVB Ratio” value is listed as 1.36 ± 0.01 and the λc (critical wavelength) was 367 nm.

As to `CCOC(=O)CN1C(=O)N/C(=C\c2ccc(OC)cc2OC)C1=O` [Compound 2d, Ethyl (Z)-2-(4-(2,4-dimethoxybenzylidene)-2,5-dioxoimidazolidin-1-yl)acetate], the melting point is 197 to 198 °C. Also, the “Probable Transformation” value in series [1] is “O-dealkylation”. In addition, in series [1] (setting [6]), the half-life at 20 µM turned out to be 15 min. Further, the intrinsic metabolic clearance (microsomal CLint) at 20 µM in series [1] (pH 7.4, mouse liver microsomes) is 59 µL/min/mg. Moreover, in series [2], the λmax pre-irradiation is 349, the “% of initial AUC post-irradiation” value is on record as 100.96% and the λmax post-irradiation is reported as 354. In series [3], the εmax was 30700 M⁻¹ cm⁻¹, the λmax is reported as 349 nm and the “Absorption Range” value is listed as 290–394 nm. In series [4] (setting [7]), the “% of Initial AUC” value is listed as 58.87%, the “% of Initial SPFin vitro” value is on record as 75.69% and the “% of Initial UVA PF” value is 51.45%. For the same molecule, the “decrease of tested parameters (SPFin vitro, UVA PF, AUC) after irradiation” value in series [4] (formulation with DMSO 48% (F3), extreme values) is on record as 41.1%. Also, in series [5] (setting [8]), the SPFin vitro came out at 2.00 ± 0.11, the “UVA PF” value came out at 4.48 ± 0.38, the “UVA/UVB Ratio” value turned out to be 2.59 ± 0.09 and the λc (critical wavelength) came to 386 nm.

Regarding `CCOC(=O)CN1C(=O)N/C(=C\c2ccc(OC)c(OC)c2)C1=O` [Compound 2e, Ethyl (Z)-2-(4-(3,4-dimethoxybenzylidene)-2,5-dioxoimidazolidin-1-yl)acetate], the melting point lay within 198 to 200 °C. Also, the “Probable Transformation” value in series [1] is “O-dealkylation”. Besides, in series [1] (setting [6]), the half-life at 20 µM is 41 min. The microsomal CLint at 20 µM in series [1] (pH 7.4, mouse liver microsomes) was 21 µL/min/mg. Also, in series [2], the λmax pre-irradiation was 344, the “% of initial AUC post-irradiation” value was 97.8% and the λmax post-irradiation is recorded as 351. For the same molecule, in series [3], the εmax is 30740 M⁻¹ cm⁻¹, the λmax is reported as 344 nm and the “Absorption Range” value is recorded as 290–381 nm. In series [4] (setting [7]), the “% of Initial AUC” value was 41.99%, the “% of Initial SPFin vitro” value is recorded as 56.00% and the “% of Initial UVA PF” value was 38.99%. Further, in series [5] (setting [8]), the SPFin vitro is given as 2.50 ± 0.08, the “UVA PF” value was found to be 4.77 ± 0.24, the “UVA/UVB Ratio” value came out at 1.95 ± 0.02 and the λc (critical wavelength) was 379 nm.

The molecule `CCOC(=O)CN1C(=O)/C(=C/C=C/c2ccccc2OC)N(CC(=O)OCC)C1=O` [Compound 4h, Diethyl 2,2′-((Z)-4-((E)-3-(2-methoxyphenyl)allylidene)-2,5-dioxoimidazolidine-1,3-diyl)diacetate] yielded a melting point of 134 to 135 °C. Moreover, in series [2], the “decrease of AUC after irradiation” value was 1.5%, the λmax pre-irradiation is 370, the “% of initial AUC post-irradiation” value was 98.55% and the λmax post-irradiation was 370. Besides, in series [3], the εmax was determined as 34987 M⁻¹ cm⁻¹, the λmax is 370 nm and the “Absorption Range” value was 290–400 nm. In series [4] (setting [9]), the “% of Initial AUC” value was 69.19%, the “% of Initial SPFin vitro” value was 82.22% and the “% of Initial UVA PF” value is given as 62.38%. Moreover, in series [4] (macrogol formulation F1), the “decrease of AUC after irradiation” value is listed as 30.8%. For the same molecule, the “percentage of photoproducts content” value in series [4] (macrogol formulation, post-irradiation chromatograms) is recorded as 11.0%. In addition, in series [5] (setting [10]), the “UVA PF” value amounted to 4.28 ± 0.02, the “UVA/UVB Ratio” value came to 2.58 ± 0.01 and the λc (critical wavelength) was 389 nm. In addition, the SPFin vitro in series [5] (2% (w/w) macrogol formulation F1 (Tween 20, PEG-400, PEG-1500, Triacetin 4.8%)) came to 1.94 ± 0.04.

For `O=C(O)CN1C(=O)N/C(=C\c2ccccc2)C1=O` [Compound 5a, (Z)-2-(4-Benzylidene-2,5-dioxoimidazolidin-1-yl)acetic acid], the melting point was 215 to 217 °C. In series [1] (setting [6]), the half-life at 20 µM is 1390 min. Moreover, the microsomal CLint at 20 µM in series [1] (pH 7.4, mouse liver microsomes) is less than 1 µL/min/mg. Moreover, in series [1] (pH 7.4, mouse liver microsomes, read-out: t1/2), the half-life at 20 µM is greater than 1380 min. In addition, in series [3], the εmax amounted to 27310 M⁻¹ cm⁻¹, the λmax was found to be 316 nm and the “Absorption Range” value is reported as 290–346 nm.

The values are drawn from publication PMC6630718, “Discovery of Novel UV-Filters with Favorable Safety Profiles in the 5-Arylideneimidazolidine-2,4-dione Derivatives Group” (Molecules, 2019).
